The structures appear in SMILES notation.

A short description of the first series: solvent given as SMILES. As to conditions: in C1CCCCC1.
The compound `O=CN1N=C(c2ccc(Br)cc2)C[C@@H]1c1ccccc1` yielded an emission maximum of 348 nm.
Compound `CC1=N/C(=C\c2ccccc2N(C)C)C(=O)N1C` had an emission maximum of 472 nm.
For `Cc1ccccc1[B-]1(c2ccccc2C)n2nc(C(F)(F)F)cc2-c2c3ccccc3cc[n+]21`, the emission maximum is recorded as 414 nm.
Same read-out and setting: then `Cc1ccc2ccccc2c1`, with 338.75 nm; and `CN(C)c1ccc(C#Cc2ccc(C#N)cc2)cc1`, with 383 nm.

The same series, now with this note: in C1CCOC1.
Consider `C(=C\c1ccncn1)/c1ccc(-c2ccc(N(c3ccccc3)c3ccccc3)cc2)cc1`, for which the emission maximum was determined as 525 nm.
Still for that read-out and setting: the same measure for `C(=C\c1ccncn1)/c1ccc(N(c2ccccc2)c2ccccc2)cc1`: 496 nm; for `CC1=N/C(=C\c2ccccc2N(C)C)C(=O)N1C`: 519 nm; for `c1ccc(-c2nc(-c3ccc(-c4ccc(-n5c6ccccc6c6ccccc65)cc4)cn3)oc2-c2ccccc2)cc1`: 411 nm.
Still for that read-out and setting: the same measure for `COc1cc2oc(=O)c3c4ccc(C=O)cc4c4ccc5cccc6c(c1)c2c3c4c56`: 442 nm; for `F[Si-](F)(c1ccccc1)(c1c2ccccc2cc2ccccc12)c1c2ccccc2cc2ccccc12`: 395 nm; for `CN(C)c1ccc(C#Cc2ccc(C#N)cc2)cc1`: 505 nm.

Staying with this series, now noted: in C1COCCO1.
The compound `CC(=O)Nc1ccc(C2=C/C(=C\c3ccc(C#N)cc3)C(=O)O2)cc1` displayed an emission maximum of 521 nm.
Same read-out and setting: then `O=CN1N=C(c2ccc(Br)cc2)C[C@@H]1c1ccccc1`, with 352 nm; and `c1ccc(-c2nc(-c3ccc(-c4ccc(-n5c6ccccc6c6ccccc65)cc4)cn3)oc2-c2ccccc2)cc1`, with 406 nm; and `CN(C)c1ccc(/C=C/C=C/C2=NC3C(=O)NC(N)=NC3N2[C@H]2C[C@H](O)[C@@H](CO)O2)cc1` (stereo partly specified), with 429 nm.
On the same count and under the same terms, the same measure for `COC(=O)c1ccc(-c2ccc(-c3nnc(-c4ccc(-c5nnc(-c6ccc(-c7ccc(C(=O)OC)cc7)s6)o5)cc4)o3)s2)cc1`: 400 nm.
On the same count and under the same terms, the same measure for `CN(C)c1ccc(C#Cc2ccc(C#N)cc2)cc1`: 446.01 nm.

Still in this series, the particulars now being: in CC1CCCO1.
Regarding `CN(C)c1ccc(C#Cc2ccc(C#N)cc2)cc1`, the emission maximum turned out to be 468.01 nm.

The same series, now with this note: in CC#N.
Compound `C(=C\c1ccncn1)/c1ccc(-c2ccc(N(c3ccccc3)c3ccccc3)cc2)cc1` registered an emission maximum of 599 nm.
Same read-out and setting: the same measure for `C[N+]1=C(/C=C/C2=C3Oc4c(cc5c6c4CCCN6CCC5)C(c4ccccc4C(=O)O)=C3CCC2)C(C)(C)c2c1ccc1ccccc21`: 780 nm; for `O=CN1N=C(c2ccc(Br)cc2)C[C@@H]1c1ccccc1`: 351 nm.
Still for that read-out and setting: the same measure for `C(=C\c1ccncn1)/c1ccc(N(c2ccccc2)c2ccccc2)cc1`: 545 nm; for `CC1=N/C(=C\c2ccccc2N(C)C)C(=O)N1C`: 536 nm; for `c1ccc(-c2nc(-c3ccc(-c4ccc(-n5c6ccccc6c6ccccc65)cc4)cn3)oc2-c2ccccc2)cc1`: 415 nm.
On the same count and under the same terms, the same measure for `CN(C)c1ccc(/C=C/C=C/C2=NC3C(=O)NC(N)=NC3N2[C@H]2C[C@H](O)[C@@H](CO)O2)cc1` (stereo partly specified): 443 nm; for `COC(=O)c1ccc(-c2ccc(-c3nnc(-c4ccc(-c5nnc(-c6ccc(-c7ccc(C(=O)OC)cc7)s6)o5)cc4)o3)s2)cc1`: 400 nm.
`CN(C)c1ccc(C#Cc2ccc(C#N)cc2)cc1` registered an emission maximum of 571 nm.
The same measure, in the same setting: then `Fc1nc(F)c(F)c(/C=C2/C(c3c(F)c(F)nc(F)c3F)=Cc3ccccc32)c1F`, with 395 nm; and `CCOC(=O)c1c2c3c(ccc(C)c3c3cc4ccccc4cc13)N(C)C2=O`, with 413 nm.

Staying with this series, now noted: in CC(=O)N(C)C.
Compound `COC(=O)c1ccc(-c2ccc(-c3nnc(-c4ccc(-c5nnc(-c6ccc(-c7ccc(C(=O)OC)cc7)s6)o5)cc4)o3)s2)cc1` returned an emission maximum of 417 nm.

The same series, now with this note: in CC(C)=O.
`c1ccc(-c2nc(-c3ccc(-c4ccc(-n5c6ccccc6c6ccccc65)cc4)cn3)oc2-c2ccccc2)cc1` returned an emission maximum of 413 nm.
`CN(C)c1ccc(C#Cc2ccc(C#N)cc2)cc1` gave an emission maximum of 543.01 nm.

The series is the same for the next values; noted with them: in CC(C)CC(C)(C)C.
Consider `CN(C)c1ccc(C#Cc2ccc(C#N)cc2)cc1`, for which the emission maximum is 380 nm.

The series is the same for the next values; noted with them: in CC(C)O.
As to `CN(C)c1ccc(C#Cc2ccc(C#N)cc2)cc1`, the emission maximum came out at 510 nm.

Still in this series, the particulars now being: in CC(C)OC(C)C.
As to `c1ccc(-c2nc(-c3ccc(-c4ccc(-n5c6ccccc6c6ccccc65)cc4)cn3)oc2-c2ccccc2)cc1`, the emission maximum came out at 398 nm.

The same series, now with this note: in CCCCCC.
`c1ccc(-c2nc(-c3ccc(-c4ccc(-n5c6ccccc6c6ccccc65)cc4)cn3)oc2-c2ccccc2)cc1`: the emission maximum is 392 nm.

Still in this series, the particulars now being: in CCCCCCC.
In turn, `C(=C\c1ccncn1)/c1ccc(-c2ccc(N(c3ccccc3)c3ccccc3)cc2)cc1` yielded an emission maximum of 445 nm.
Still for that read-out and setting: the same measure for `C(=C\c1ccncn1)/c1ccc(N(c2ccccc2)c2ccccc2)cc1`: 443 nm.

The series is the same for the next values; noted with them: in CCCCCCCCCCCCCCCC
In turn, `CN(C)c1ccc(C#Cc2ccc(C#N)cc2)cc1` returned an emission maximum of 385 nm.

The same series, now with this note: in CCCCCCCCCCCCCCCCCl.
Regarding `CN(C)c1ccc(C#Cc2ccc(C#N)cc2)cc1`, the emission maximum was 423.6 nm.

The same series, now with this note: in CCCCCCCCCCO
As to `COC(=O)c1ccc(-c2ccc(-c3nnc(-c4ccc(-c5nnc(-c6ccc(-c7ccc(C(=O)OC)cc7)s6)o5)cc4)o3)s2)cc1`, the emission maximum turned out to be 408 nm.

The same series, now with this note: in CCCCCCCCO
In the case of `COC(=O)c1ccc(-c2ccc(-c3nnc(-c4ccc(-c5nnc(-c6ccc(-c7ccc(C(=O)OC)cc7)s6)o5)cc4)o3)s2)cc1`, the emission maximum came out at 399 nm.

Staying with this series, now noted: in CCCCCCO.
Turning to `COC(=O)c1ccc(-c2ccc(-c3nnc(-c4ccc(-c5nnc(-c6ccc(-c7ccc(C(=O)OC)cc7)s6)o5)cc4)o3)s2)cc1`, the emission maximum is recorded as 389 nm.

The series is the same for the next values; noted with them: in CCCCO.
`COC(=O)c1ccc(-c2ccc(-c3nnc(-c4ccc(-c5nnc(-c6ccc(-c7ccc(C(=O)OC)cc7)s6)o5)cc4)o3)s2)cc1` returned an emission maximum of 394 nm.

Still in this series, the particulars now being: in CCCCOCCCC
Turning to `c1ccc(-c2nc(-c3ccc(-c4ccc(-n5c6ccccc6c6ccccc65)cc4)cn3)oc2-c2ccccc2)cc1`, the emission maximum is listed as 399 nm.

Staying with this series, now noted: in CCN(CC)CC.
Compound `c1ccc(-c2nc(-c3ccc(-c4ccc(-n5c6ccccc6c6ccccc65)cc4)cn3)oc2-c2ccccc2)cc1` returned an emission maximum of 396 nm.

Staying with this series, now noted: in CCO.
In the case of `C[N+]1=C(/C=C/C2=C3Oc4c(cc5c6c4CCCN6CCC5)C(c4ccccc4C(=O)O)=C3CCC2)C(C)(C)c2c1ccc1ccccc21`, the emission maximum is listed as 763 nm.
With `O=CN1N=C(c2ccc(Br)cc2)C[C@@H]1c1ccccc1`, the emission maximum turned out to be 345 nm.
`COC(=O)c1ccc(-c2ccc(-c3nnc(-c4ccc(-c5nnc(-c6ccc(-c7ccc(C(=O)OC)cc7)s6)o5)cc4)o3)s2)cc1` showed an emission maximum of 400 nm.

The series is the same for the next values; noted with them: in CCOC(C)=O.
As to `O=CN1N=C(c2ccc(Br)cc2)C[C@@H]1c1ccccc1`, the emission maximum came out at 350 nm.
The same measure, in the same setting: the same measure for `c1ccc(-c2nc(-c3ccc(-c4ccc(-n5c6ccccc6c6ccccc65)cc4)cn3)oc2-c2ccccc2)cc1`: 408 nm; for `CN(C)c1ccc(C#Cc2ccc(C#N)cc2)cc1`: 482 nm.

The series is the same for the next values; noted with them: in CCOCC.
Regarding `c1ccc(-c2nc(-c3ccc(-c4ccc(-n5c6ccccc6c6ccccc65)cc4)cn3)oc2-c2ccccc2)cc1`, the emission maximum was 400 nm.
On the same count and under the same terms, then `CN(C)c1ccc(C#Cc2ccc(C#N)cc2)cc1`, with 453 nm.

Staying with this series, now noted: in CN(C)C=O.
In the case of `CN(C)c1ccc(C#Cc2ccc(C#N)cc2)cc1`, the emission maximum is given as 566 nm.

The record behind these values is the Deep4Chem optical property database.
